Reference: PMC6199744, “Development of Chemical Proteomics for the Folateome and Analysis of the Kinetoplastid Folateome” (ACS Infectious Diseases, 2018)

Tested on: L. major lysate proteins
Experiment: Multitargeted bead mixture chemoproteomics, single concentration competition, proteome-wide
Assay type: binding
Settings: for fold change: vehicle control = 1

Nc1nc2[nH]cc(CCc3ccc(C(=O)N[C@@H](CCC(=O)O)C(=O)O)cc3)c2c(=O)[nH]1 [PTX, pemetrexed]
fold change (protein LMJF.15.0040 HY[…], CONSERVED (Possible lysine decarboxylase, putative)): 0.69 | fold change vs vehicle control (protein LMJF.15.0690 HY[…], CONSERVED): 1.2 | fold change (protein LMJF.15.1010 GLUTAMATE DEHYDROGENASE): 1 | fold change (protein LMJF.15.1190 HY[…], CONSERVED (cyclic nucleotide-binding domain containing protein, putative)): 0.98 | fold change vs vehicle control (protein LMJF.16.0520 HY[…], CONSERVED): 0.76 | fold change vs vehicle control (protein LMJF.16.0540 ASPARTATE CARBAMOYLTRANSFERASE, PUTATIVE): 0.92 | fold change relative to vehicle control (protein LMJF.16.0760, TRANSALDOLASE, PUTATIVE): 1.18 | fold change vs vehicle control (protein LMJF.16.0940 DYNEIN LIGHT CHAIN, PUTATIVE): 1.1 | fold change relative to vehicle control (protein LMJF.16.1180, COATOMER DELTA SUBUNIT-LIKE PROTEIN): 1.15 | fold change relative to vehicle control (protein LMJF.16.1320, CYTOCHROME C, PUTATIVE): 1.56 | fold change relative to vehicle control (protein LMJF.16.1420, HY[…], CONSERVED): 1.13 | fold change relative to vehicle control (protein LMJF.17.0081, […] 1-ALPHA): 1.06 | fold change relative to vehicle control (protein LMJF.18.0270, GLYCOGEN SYNTHASE KINASE, PUTATIVE): 0.92 | fold change (protein LMJF.18.0580 P[…]-COA HYDRATASE, PUTATIVE): 0.93 | fold change relative to vehicle control (protein LMJF.18.0680, CITRATE SYNTHASE, PUTATIVE): 1.08 | fold change vs vehicle control (protein LMJF.18.1010 DYNEIN LIGHT CHAIN 2B, CYTOPLASMIC, PUTATIVE): 1.03 | fold change vs vehicle control (protein LMJF.18.1210 PROLYL-TRNA SYNTHETASE, PUTATIVE,BI[…]-TRNA SYNTHETASE, PUTATIVE): 0.97 | fold change vs vehicle control (protein LMJF.18.1370 HEAT SHOCK PROTEIN, PUTATIVE): 1.02 | fold change (protein LMJF.19.0200 ADP,ATP CARRIER PROTEIN 1, MIT[…], PUTATIVE): 1.02 | fold change vs vehicle control (protein LMJF.19.1120 […]-ATP-ASE SUBUNIT, PUTATIVE): 0.91 | fold change vs vehicle control (protein LMJF.19.1160 HY[…], CONSERVED): 0.92 | fold change vs vehicle control (protein LMJF.19.1560 INOSINE-5'-MONOPHOSPHATE DEHYDROGENASE): 0.92 | fold change relative to vehicle control (protein LMJF.19.1620, POTASSIUM VOLTAGE-GATED CHANNEL, PUTATIVE): 1.13 | fold change vs vehicle control (protein LMJF.20.1280 SMALL MYR[…] 4, PUTATIVE): 0.89 | fold change (protein LMJF.21.0810 METHIONYL-TRNA SYNTHETASE, PUTATIVE): 0.98 | fold change (protein LMJF.21.1450 ARGININE N-METHYLTRANSFERASE, TYPE II, PUTATIVE): 0.98 | fold change vs vehicle control (protein LMJF.21.1830 […] 5 SUBUNIT, PUTATIVE,20S […] ALPHA 5, (PUTATIVE)): 0.96 | fold change (protein LMJF.22.0230 AMINO ACID PERMEASE, PUTATIVE): 1.09 | fold change vs vehicle control (protein LMJF.22.0570 […] SUBUNIT 1, PUTATIVE): 1.04 | fold change vs vehicle control (protein LMJF.22.0730 HY[…], CONSERVED): 0.96 | fold change (protein LMJF.22.0770 NADH-CYTOCHROME B5 REDUCTASE, PUTATIVE): 0.82 | fold change relative to vehicle control (protein LMJF.23.0020, HY[…], CONSERVED): 1.35 | fold change relative to vehicle control (protein LMJF.23.0040, PEROXIDOXIN): 0.99 | fold change relative to vehicle control (protein LMJF.23.0080, HY[…], CONSERVED): 0.97 | fold change (protein LMJF.23.0210 ATP-BINDING CASSETTE PROTEIN SUBFAMILY C, MEMBER 1, PUTATIVE): 0.87 | fold change (protein LMJF.23.0370 CYTOCHROME C OXIDASE SUBUNIT 10, PUTATIVE): 0.9 | fold change relative to vehicle control (protein LMJF.23.0540, ACETYL-COA SYNTHETASE, PUTATIVE): 1.05 | fold change vs vehicle control (protein LMJF.23.0560 KINESIN, PUTATIVE): 1.12 | fold change vs vehicle control (protein LMJF.23.1410 HY[…], CONSERVED): 0.97 | fold change relative to vehicle control (protein LMJF.24.0070, HY[…], CONSERVED): 1.03 | fold change (protein LMJF.24.0140 ANKYRIN/TPR REPEAT PROTEIN): 0.86 | fold change (protein LMJF.24.0400 HY[…], CONSERVED (TPR repeat, putative)): 0.87 | fold change relative to vehicle control (protein LMJF.24.1510, IGE-DEPENDENT HISTAMINE-RELEASING FACTOR, PUTATIVE): 1.15 | fold change relative to vehicle control (protein LMJF.24.1630, SUCCINATE DEHYDROGENASE FLAVOPROTEIN, PUTATIVE): 0.98 | fold change relative to vehicle control (protein LMJF.24.2060, TRANSKETOLASE): 0.96 | fold change relative to vehicle control (protein LMJF.25.0010, BETA GALACTOFURANOSYL TRANSFERASE): 1.17 | fold change relative to vehicle control (protein LMJF.25.0910, C[…]): 1.55 | fold change vs vehicle control (protein LMJF.25.1130 CYTOCHROME C OXIDASE VII, PUTATIVE): 0.92 | fold change relative to vehicle control (protein LMJF.25.1180, ATPASE BETA SUBUNIT, PUTATIVE): 1 | fold change vs vehicle control (protein LMJF.25.1610 HY[…], CONSERVED): 0.99 | fold change vs vehicle control (protein LMJF.25.1620 HY[…], CONSERVED): 1.01 | fold change (protein LMJF.25.2340 SERINE/THREONINE-PROTEIN KINASE, PUTATIVE,PROTEIN KINASE, PUTATIVE): 0.74 | fold change relative to vehicle control (protein LMJF.26.0630, HY[…], CONSERVED): 0.9 | fold change vs vehicle control (protein LMJF.26.1240 HEAT SHOCK PROTEIN 70-RELATED PROTEIN): 0.88 | fold change (protein LMJF.26.1710 CYTOCHROME C OXIDASE SUBUNIT V, PUTATIVE): 0.94 | fold change vs vehicle control (protein LMJF.26.2480 CDP-DIACYLGLYCEROL--INOSITOL 3-PHOSPHATIDYLTRANSFERASE, PUTATIVE): 1.06 | fold change vs vehicle control (protein LMJF.26.2560 HY[…], CONSERVED): 0.66 | fold change vs vehicle control (protein LMJF.27.0190 […] 7 SUBUNIT, PUTATIVE): 0.91 | fold change (protein LMJF.27.0650 HY[…], CONSERVED): 0.99 | fold change (protein LMJF.27.0700 HY[…], CONSERVED): 0.86 | fold change vs vehicle control (protein LMJF.27.0760 GTP-binding protein homologue): 1.01 | fold change vs vehicle control (protein LMJF.27.1060 CYSTEINE DESULFURASE, PUTATIVE): 0.96 | fold change vs vehicle control (protein LMJF.27.1110 MIT[…] BINDING PROTEIN 1,GBP21, MRP1): 1.06 | fold change (protein LMJF.27.1250 HY[…], CONSERVED (Serine-threonine kinase receptor-associated protein, putative)): 0.88 | fold change relative to vehicle control (protein LMJF.27.1390, 60S ACIDIC RIBOSOMAL SUBUNIT PROTEIN, PUTATIVE): 1.07 | fold change (protein LMJF.27.1460 […]-ATP-ASE SUBUNIT 3, PUTATIVE): 0.89
